Laboratory results published in ChEMBL document CHEMBL4507280 (2021).

Columns and labels:
[1] = biological target: Dual specificity protein kinase CLK4 (Homo sapiens) (UniProt Q9HAZ1); settings: Compound concentration 1000.0 nM
[2] = tested on: Mast/stem cell growth factor receptor Kit (Homo sapiens), P10721 [D816V]; settings: Compound concentration 1000.0 nM
[3] = biological target: Ribosomal protein S6 kinase alpha-5 (Homo sapiens) (UniProt O75582); settings: Compound concentration 1000.0 nM
[4] = biological target: Macrophage colony-stimulating factor 1 receptor (Homo sapiens) (UniProt P07333); settings: Compound concentration 1000.0 nM
Chain of Macrophage colony-stimulating factor 1 receptor (Homo sapiens) (P07333 whole entry): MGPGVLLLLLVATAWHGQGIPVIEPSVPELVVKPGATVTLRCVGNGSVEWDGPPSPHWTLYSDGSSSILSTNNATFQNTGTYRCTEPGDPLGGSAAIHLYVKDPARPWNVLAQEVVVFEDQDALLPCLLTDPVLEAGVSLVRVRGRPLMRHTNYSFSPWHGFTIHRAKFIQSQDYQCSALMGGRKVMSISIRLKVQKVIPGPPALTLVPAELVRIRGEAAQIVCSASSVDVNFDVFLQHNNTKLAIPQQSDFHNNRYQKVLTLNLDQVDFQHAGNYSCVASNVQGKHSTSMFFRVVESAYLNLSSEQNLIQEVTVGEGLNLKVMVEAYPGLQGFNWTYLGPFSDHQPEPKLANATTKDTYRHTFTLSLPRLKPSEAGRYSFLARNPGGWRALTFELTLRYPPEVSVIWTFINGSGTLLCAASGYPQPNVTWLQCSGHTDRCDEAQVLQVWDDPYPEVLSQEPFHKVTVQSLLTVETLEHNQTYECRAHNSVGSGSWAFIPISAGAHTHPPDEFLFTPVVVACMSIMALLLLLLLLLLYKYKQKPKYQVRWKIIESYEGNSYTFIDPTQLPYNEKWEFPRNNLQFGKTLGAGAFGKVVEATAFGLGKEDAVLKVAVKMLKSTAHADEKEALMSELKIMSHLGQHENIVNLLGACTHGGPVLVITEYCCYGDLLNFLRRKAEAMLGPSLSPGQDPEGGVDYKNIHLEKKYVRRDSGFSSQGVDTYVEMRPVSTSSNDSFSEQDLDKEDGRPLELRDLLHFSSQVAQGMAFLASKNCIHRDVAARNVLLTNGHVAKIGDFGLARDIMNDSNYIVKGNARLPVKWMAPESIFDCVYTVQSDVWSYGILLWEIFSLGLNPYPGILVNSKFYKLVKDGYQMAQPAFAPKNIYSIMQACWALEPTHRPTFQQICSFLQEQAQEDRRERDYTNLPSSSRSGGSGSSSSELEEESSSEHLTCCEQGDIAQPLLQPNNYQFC

[5] = biological target: Cyclin-dependent kinase 19 (Homo sapiens) (UniProt Q9BWU1); settings: Compound concentration 1000.0 nM
[6] = tested on: Receptor-type tyrosine-protein kinase FLT3 (Homo sapiens), P36888 [D835V]; settings: Compound concentration 1000.0 nM
[7] = biological target: Serine/threonine-protein kinase Nek1 (Homo sapiens) (UniProt Q96PY6); settings: Compound concentration 1000.0 nM
[8] = biological target: Serine/threonine-protein kinase PAK 5 (Homo sapiens) (UniProt Q9P286); settings: Compound concentration 1000.0 nM
[9] = biological target: Macrophage colony-stimulating factor 1 receptor (Homo sapiens) (UniProt P07333); settings: Compound concentration 1000.0 nM; remark: listed apart in the source
[10] = tested on: Receptor-type tyrosine-protein kinase FLT3 (Homo sapiens), P36888 [K663Q]; settings: Compound concentration 1000.0 nM
[11] = biological target: 3-phosphoinositide-dependent protein kinase 1 (Homo sapiens) (UniProt O15530); settings: Compound concentration 1000.0 nM
[12] = biological target: Myosin-IIIa (Homo sapiens) (UniProt Q8NEV4); settings: Compound concentration 1000.0 nM
[13] = biological target: Serine/threonine-protein kinase Nek9 (Homo sapiens) (UniProt Q8TD19); settings: Compound concentration 1000.0 nM
[14] = biological target: STE20-like serine/threonine-protein kinase (Homo sapiens) (UniProt Q9H2G2); settings: Compound concentration 1000.0 nM
[15] = biological target: Histamine H1 receptor (Homo sapiens) (UniProt P35367); settings: Compound concentration 10.0 uM
[16] = biological target: 5-hydroxytryptamine receptor 5A (Homo sapiens) (UniProt P47898); settings: Compound concentration 10.0 uM
[17] = biological target: Tyrosine-protein kinase Lyn (Homo sapiens) (UniProt P07948); settings: Compound concentration 1000.0 nM
Chain of Tyrosine-protein kinase Lyn (Homo sapiens) (P07948 2-512 limits assumed): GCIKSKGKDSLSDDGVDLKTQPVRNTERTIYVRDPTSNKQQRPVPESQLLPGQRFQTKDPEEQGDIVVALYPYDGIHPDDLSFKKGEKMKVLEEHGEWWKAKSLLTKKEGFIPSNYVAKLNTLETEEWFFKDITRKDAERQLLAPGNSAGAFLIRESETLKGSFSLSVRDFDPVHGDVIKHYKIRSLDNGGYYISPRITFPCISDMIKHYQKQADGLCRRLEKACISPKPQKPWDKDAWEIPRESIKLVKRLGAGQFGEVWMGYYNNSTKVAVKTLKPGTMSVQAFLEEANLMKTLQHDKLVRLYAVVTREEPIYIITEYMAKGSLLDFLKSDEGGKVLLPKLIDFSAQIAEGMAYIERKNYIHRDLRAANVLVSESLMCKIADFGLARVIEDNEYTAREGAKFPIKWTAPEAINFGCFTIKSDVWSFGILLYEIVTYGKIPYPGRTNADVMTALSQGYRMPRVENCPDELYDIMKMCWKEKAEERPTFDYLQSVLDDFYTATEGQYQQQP

[18] = biological target: Dual specificity tyrosine-phosphorylation-regulated kinase 1B (Homo sapiens) (UniProt Q9Y463); settings: Compound concentration 1000.0 nM
[19] = biological target: Dual specificity testis-specific protein kinase 1 (Homo sapiens) (UniProt Q15569); settings: Compound concentration 1000.0 nM
[20] = biological target: Serine/threonine-protein kinase TAO2 (Homo sapiens) (UniProt Q9UL54); settings: Compound concentration 1000.0 nM
[21] = biological target: Ephrin type-A receptor 2 (Homo sapiens) (UniProt P29317); settings: Compound concentration 1000.0 nM
[22] = biological target: Cyclin-dependent kinase 17 (Homo sapiens) (UniProt Q00537); settings: Compound concentration 1000.0 nM
[23] = biological target: Phosphatidylinositol 4-phosphate 3-kinase C2 domain-containing subunit beta (Homo sapiens) (UniProt O00750); settings: Compound concentration 1000.0 nM
[24] = biological target: Serine/threonine-protein kinase TAO3 (Homo sapiens) (UniProt Q9H2K8); settings: Compound concentration 1000.0 nM
[25] = biological target: Mu-type opioid receptor (Homo sapiens) (UniProt P35372); settings: Compound concentration 10.0 uM
[26] = biological target: Tyrosine-protein kinase Blk (Homo sapiens) (UniProt P51451); settings: Compound concentration 1000.0 nM
[27] = biological target: 5-hydroxytryptamine receptor 6 (Homo sapiens) (UniProt P50406); settings: Compound concentration 10.0 uM
[28] = biological target: BDNF/NT-3 growth factors receptor (Homo sapiens) (UniProt Q16620); settings: Compound concentration 1000.0 nM
[29] = tested on: Receptor-type tyrosine-protein kinase FLT3 (Homo sapiens), P36888 [D835Y]; settings: Compound concentration 1000.0 nM
[30] = biological target: Vascular endothelial growth factor receptor 3 (Homo sapiens) (UniProt P35916); settings: Compound concentration 1000.0 nM
[31] = biological target: Calcium/calmodulin-dependent protein kinase type II subunit beta (Homo sapiens) (UniProt Q13554); settings: Compound concentration 1000.0 nM
Chain of Calcium/calmodulin-dependent protein kinase type II subunit beta (Homo sapiens) (Q13554 whole entry): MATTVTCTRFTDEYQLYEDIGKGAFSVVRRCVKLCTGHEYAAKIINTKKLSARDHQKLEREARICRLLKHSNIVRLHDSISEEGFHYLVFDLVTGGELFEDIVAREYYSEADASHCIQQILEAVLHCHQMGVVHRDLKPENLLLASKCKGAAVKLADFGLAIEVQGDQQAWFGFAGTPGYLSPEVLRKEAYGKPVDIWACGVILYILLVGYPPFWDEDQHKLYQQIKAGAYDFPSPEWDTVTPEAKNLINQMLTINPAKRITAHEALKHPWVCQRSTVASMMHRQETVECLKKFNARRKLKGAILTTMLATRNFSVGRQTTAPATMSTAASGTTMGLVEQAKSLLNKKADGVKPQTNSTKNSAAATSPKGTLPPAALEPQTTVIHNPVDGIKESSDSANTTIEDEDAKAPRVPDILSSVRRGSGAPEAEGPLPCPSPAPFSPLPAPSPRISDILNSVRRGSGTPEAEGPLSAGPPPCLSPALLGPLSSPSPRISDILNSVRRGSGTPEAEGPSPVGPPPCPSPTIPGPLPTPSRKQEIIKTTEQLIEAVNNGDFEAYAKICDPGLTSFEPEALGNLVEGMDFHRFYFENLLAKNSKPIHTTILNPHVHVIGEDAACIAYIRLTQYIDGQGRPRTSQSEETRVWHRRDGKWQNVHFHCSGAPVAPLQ

[32] = biological target: MAP kinase-interacting serine/threonine-protein kinase 2 (Homo sapiens) (UniProt Q9HBH9); settings: Compound concentration 1000.0 nM
Chain of MAP kinase-interacting serine/threonine-protein kinase 2 (Homo sapiens) (Q9HBH9 whole entry, looked up): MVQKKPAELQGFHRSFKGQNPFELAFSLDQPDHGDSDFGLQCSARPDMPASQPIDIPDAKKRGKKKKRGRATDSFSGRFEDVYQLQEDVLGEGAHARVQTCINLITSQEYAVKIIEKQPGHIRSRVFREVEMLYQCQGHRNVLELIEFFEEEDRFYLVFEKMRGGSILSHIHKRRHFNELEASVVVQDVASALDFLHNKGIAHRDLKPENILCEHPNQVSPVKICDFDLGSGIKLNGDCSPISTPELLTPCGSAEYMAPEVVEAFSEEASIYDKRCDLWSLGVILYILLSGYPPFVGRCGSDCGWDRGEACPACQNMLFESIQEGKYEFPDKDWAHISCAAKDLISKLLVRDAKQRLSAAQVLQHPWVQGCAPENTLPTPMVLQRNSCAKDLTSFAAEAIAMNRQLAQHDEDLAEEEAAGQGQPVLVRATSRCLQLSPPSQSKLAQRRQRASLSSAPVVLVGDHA

[33] = biological target: Serine/threonine-protein kinase ULK2 (Homo sapiens) (UniProt Q8IYT8); settings: Compound concentration 1000.0 nM
[34] = biological target: Serine/threonine-protein kinase PAK 6 (Homo sapiens) (UniProt Q9NQU5); settings: Compound concentration 1000.0 nM
[35] = biological target: Hormonally up-regulated neu tumor-associated kinase (Homo sapiens) (UniProt P57058); settings: Compound concentration 1000.0 nM
[36] = biological target: Serine/threonine-protein kinase RIO2 (Homo sapiens) (UniProt Q9BVS4); settings: Compound concentration 1000.0 nM
[37] = biological target: Mitogen-activated protein kinase 3 (Homo sapiens) (UniProt P27361); settings: Compound concentration 1000.0 nM
[38] = biological target: Muscarinic acetylcholine receptor M4 (Homo sapiens) (UniProt P08173); settings: Compound concentration 10.0 uM
[39] = biological target: Non-receptor tyrosine-protein kinase TNK1 (Homo sapiens) (UniProt Q13470); settings: Compound concentration 1000.0 nM
[40] = biological target: Tyrosine-protein kinase receptor UFO (Homo sapiens) (UniProt P30530); settings: Compound concentration 1000.0 nM
[41] = biological target: Serine/threonine-protein kinase SBK1 (Homo sapiens) (UniProt Q52WX2); settings: Compound concentration 1000.0 nM
[42] = biological target: Serine/threonine-protein kinase DCLK1 (Homo sapiens) (UniProt O15075); settings: Compound concentration 1000.0 nM
[43] = biological target: Serine/threonine-protein kinase PAK 1 (Homo sapiens) (UniProt Q13153); settings: Compound concentration 1000.0 nM
[44] = tested on: Phosphatidylinositol 4,5-bisphosphate 3-kinase catalytic subunit alpha isoform (Homo sapiens), P42336 [H1047Y]; settings: Compound concentration 1000.0 nM
[45] = biological target: Myosin light chain kinase (Homo sapiens) (UniProt Q32MK0); settings: Compound concentration 1000.0 nM
Chain of Myosin light chain kinase (Homo sapiens) (Q32MK0 whole entry): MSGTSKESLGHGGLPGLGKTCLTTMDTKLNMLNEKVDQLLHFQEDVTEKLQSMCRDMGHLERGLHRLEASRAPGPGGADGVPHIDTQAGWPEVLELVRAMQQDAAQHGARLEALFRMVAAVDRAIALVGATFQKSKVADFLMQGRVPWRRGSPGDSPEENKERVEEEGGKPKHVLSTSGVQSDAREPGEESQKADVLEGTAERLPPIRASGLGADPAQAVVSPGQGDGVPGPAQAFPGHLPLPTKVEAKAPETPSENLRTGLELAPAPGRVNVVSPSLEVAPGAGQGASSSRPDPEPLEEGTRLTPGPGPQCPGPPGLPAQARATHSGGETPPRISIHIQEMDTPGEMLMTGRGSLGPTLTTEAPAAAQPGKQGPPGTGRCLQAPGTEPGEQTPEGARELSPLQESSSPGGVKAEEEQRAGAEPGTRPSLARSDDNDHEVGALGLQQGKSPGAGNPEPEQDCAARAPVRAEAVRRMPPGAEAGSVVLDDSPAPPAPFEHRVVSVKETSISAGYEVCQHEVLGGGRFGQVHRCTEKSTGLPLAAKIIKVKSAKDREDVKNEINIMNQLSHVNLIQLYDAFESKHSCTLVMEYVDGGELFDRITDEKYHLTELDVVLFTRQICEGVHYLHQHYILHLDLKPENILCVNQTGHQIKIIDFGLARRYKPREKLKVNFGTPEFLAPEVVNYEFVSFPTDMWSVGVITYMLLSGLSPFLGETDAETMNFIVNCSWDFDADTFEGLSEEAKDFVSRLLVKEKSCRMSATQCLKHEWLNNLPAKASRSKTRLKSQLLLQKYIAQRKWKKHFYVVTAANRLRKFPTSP

Chain of Ribosomal protein S6 kinase alpha-5 (Homo sapiens) (O75582 whole entry, looked up): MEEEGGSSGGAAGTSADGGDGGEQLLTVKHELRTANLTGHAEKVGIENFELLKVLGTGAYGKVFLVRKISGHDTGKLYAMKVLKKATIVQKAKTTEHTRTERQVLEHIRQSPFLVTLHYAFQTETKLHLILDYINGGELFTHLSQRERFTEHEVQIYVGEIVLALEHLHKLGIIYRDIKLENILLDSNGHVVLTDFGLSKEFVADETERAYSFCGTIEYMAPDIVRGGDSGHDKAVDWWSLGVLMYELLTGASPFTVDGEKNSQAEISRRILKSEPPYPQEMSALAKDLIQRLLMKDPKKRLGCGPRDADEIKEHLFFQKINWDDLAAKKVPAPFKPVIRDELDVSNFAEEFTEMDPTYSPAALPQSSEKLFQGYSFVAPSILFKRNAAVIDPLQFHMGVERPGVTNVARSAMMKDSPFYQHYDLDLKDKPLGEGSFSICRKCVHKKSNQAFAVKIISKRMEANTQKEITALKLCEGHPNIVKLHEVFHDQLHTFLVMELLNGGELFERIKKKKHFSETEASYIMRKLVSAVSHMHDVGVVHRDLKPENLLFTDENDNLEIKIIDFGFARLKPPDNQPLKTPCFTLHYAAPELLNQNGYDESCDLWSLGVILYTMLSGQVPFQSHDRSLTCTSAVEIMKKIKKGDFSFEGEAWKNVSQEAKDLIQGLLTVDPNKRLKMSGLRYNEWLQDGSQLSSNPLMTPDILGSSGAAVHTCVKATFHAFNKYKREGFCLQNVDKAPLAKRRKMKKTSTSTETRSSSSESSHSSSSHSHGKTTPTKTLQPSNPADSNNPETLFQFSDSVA
Chain of Dual specificity protein kinase CLK4 (Homo sapiens) (Q9HAZ1 whole entry, looked up): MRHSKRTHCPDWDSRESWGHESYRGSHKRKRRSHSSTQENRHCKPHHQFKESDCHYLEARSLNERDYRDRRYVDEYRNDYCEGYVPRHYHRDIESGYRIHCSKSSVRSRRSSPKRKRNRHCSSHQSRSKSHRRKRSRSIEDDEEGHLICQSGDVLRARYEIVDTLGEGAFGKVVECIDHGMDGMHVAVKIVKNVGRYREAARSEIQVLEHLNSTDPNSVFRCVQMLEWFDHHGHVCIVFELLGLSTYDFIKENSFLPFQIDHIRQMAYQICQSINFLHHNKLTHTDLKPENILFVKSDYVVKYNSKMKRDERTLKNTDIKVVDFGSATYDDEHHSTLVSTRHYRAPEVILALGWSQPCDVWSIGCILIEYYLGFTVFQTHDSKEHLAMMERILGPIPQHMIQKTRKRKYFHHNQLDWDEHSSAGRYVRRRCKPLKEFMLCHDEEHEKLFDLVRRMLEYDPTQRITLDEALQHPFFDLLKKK

In the case of `CCC(=O)N[C@H]1CC[C@@H](C(=O)N(C)c2ccc(-c3nc4ccccc4o3)cc2)C1` [BI 99179], the residual activity [1] is reported as 94%, the residual activity [2] is reported as 86% and the residual activity [3] is reported as 68%. It also gave a residual activity [4] of 56%, a residual activity [5] of 100% and a residual activity [6] of 73%. The residual activity [7] was 100%, the residual activity [8] was 100% and the residual activity [9] was 93%. The residual activity [10] was 88%, the residual activity [11] was 90% and the residual activity [12] was 100%. The residual activity [13] was 99%, the residual activity [14] was 92% and the inhibition [15] was 20.9%. It also gave an inhibition [16] of -1.85%, a residual activity [17] of 100% and a residual activity [18] of 100%. It also gave a residual activity [19] of 100%, a residual activity [20] of 76% and a residual activity [21] of 100%. The residual activity [22] was 100%, the residual activity [23] was 93% and the residual activity [24] was 70%. It also gave an inhibition [25] of 10.3%, a residual activity [26] of 97% and an inhibition [27] of 3.86%. It also gave a residual activity [28] of 100%, a residual activity [29] of 100% and a residual activity [30] of 97%. For the same compound, the residual activity [31] was 94%, the residual activity [32] was 100% and the residual activity [33] was 75%. For the same compound, the residual activity [34] was 100%, the residual activity [35] was 100% and the residual activity [36] was 84%. The residual activity [37] was 100%, the inhibition [38] was 28.9% and the residual activity [39] was 100%. The residual activity [40] was 87%, the residual activity [41] was 94% and the residual activity [42] was 100%. For the same compound, the residual activity [43] was 82%, the residual activity [44] was 97% and the residual activity [45] was 97%.
Compound `CCC(=O)N[C@@H]1CC[C@H](C(=O)N(C)c2ccc(-c3nc4ccccc4o3)cc2)C1` [BI 99990] has a residual activity [1] of 88%, a residual activity [2] of 89% and a residual activity [3] of 97%. The residual activity [4] was 100%, the residual activity [5] was 82% and the residual activity [6] was 92%. For the same compound, the residual activity [7] was 100%, the residual activity [8] was 100% and the residual activity [9] was 88%. For the same compound, the residual activity [10] was 100%, the residual activity [11] was 100% and the residual activity [12] was 100%. The residual activity [13] was 100%, the residual activity [14] was 100% and the inhibition [15] was 18.6%. It also gave an inhibition [16] of -3.5%, a residual activity [17] of 92% and a residual activity [18] of 36%. The residual activity [19] was 75%, the residual activity [20] was 89% and the residual activity [21] was 94%. The residual activity [22] was 100%, the residual activity [23] was 70% and the residual activity [24] was 87%. For the same compound, the inhibition [25] was 14.1%, the residual activity [26] was 100% and the inhibition [27] was 10.1%. For the same compound, the residual activity [28] was 100%, the residual activity [29] was 100% and the residual activity [30] was 100%. It also gave a residual activity [31] of 100%, a residual activity [32] of 100% and a residual activity [33] of 100%. It also gave a residual activity [34] of 100%, a residual activity [35] of 100% and a residual activity [36] of 100%. It also gave a residual activity [37] of 100%, an inhibition [38] of 5.19% and a residual activity [39] of 100%. It also gave a residual activity [40] of 100%, a residual activity [41] of 100% and a residual activity [42] of 88%. For the same compound, the residual activity [43] was 82%, the residual activity [44] was 100% and the residual activity [45] was 100%.
